Measurements taken from patent US20080255206A1, “Rxr Agonists and Antagonists, Alone or in Combination with Ppar Ligands, in the Treatment of Metabolic and Cardiovascular Diseases” (priority 2005, published 2008).
Values belong to the molecule of their own block, whether it stands above or below them.

Assays:
[1] = molecular target: T1, RXRα (Homo sapiens, UniProt P19793); assay: Retinoid activation assay, RXRα (Schneider SL-3 cells, luciferase reporter); assay type: cell-based; conditions: read-out: Activation EC50 RXR α
T1 sequence (P19793 1-462): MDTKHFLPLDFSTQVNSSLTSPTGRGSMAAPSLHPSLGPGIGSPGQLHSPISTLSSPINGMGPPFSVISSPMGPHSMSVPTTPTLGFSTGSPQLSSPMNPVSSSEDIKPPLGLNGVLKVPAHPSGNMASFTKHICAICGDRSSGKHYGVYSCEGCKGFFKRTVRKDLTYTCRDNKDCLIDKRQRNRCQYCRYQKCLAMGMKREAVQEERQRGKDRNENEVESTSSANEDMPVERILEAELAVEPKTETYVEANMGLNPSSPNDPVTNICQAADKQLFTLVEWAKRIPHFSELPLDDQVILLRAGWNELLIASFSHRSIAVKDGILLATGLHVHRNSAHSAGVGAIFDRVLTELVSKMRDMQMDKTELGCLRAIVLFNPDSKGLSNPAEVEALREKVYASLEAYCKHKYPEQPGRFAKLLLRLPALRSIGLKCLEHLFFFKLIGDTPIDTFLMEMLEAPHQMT
Procedure: (§1) Full length RXR cDNA is used for transfection. As reporter system, the luciferase gene is used in a construct with three copies of a RXR response element from rat CRBP gene, (formerly RARE from betaRAR gene), fused to alcoholdehydrogenase gene promoter in the plasmid pGL2-basic. Schneider SL-3 cells from Drosophila are transiently transfected 3-4 h before the experiment by the Ca-phosphate-DNA coprecipitation method. […] At the end of the incubation, the cell supernatants are assayed for luciferase activity. Results are given as EC50 (nM), the concentration leading to half-maximal activation.

[2] = molecular target: T2, RXRγ (Homo sapiens, UniProt P48443); assay: Retinoid activation assay, RXRγ (Schneider SL-3 cells, luciferase reporter); assay type: cell-based; conditions: read-out: Activation EC50 RXR γ
T2 sequence (P48443 1-463): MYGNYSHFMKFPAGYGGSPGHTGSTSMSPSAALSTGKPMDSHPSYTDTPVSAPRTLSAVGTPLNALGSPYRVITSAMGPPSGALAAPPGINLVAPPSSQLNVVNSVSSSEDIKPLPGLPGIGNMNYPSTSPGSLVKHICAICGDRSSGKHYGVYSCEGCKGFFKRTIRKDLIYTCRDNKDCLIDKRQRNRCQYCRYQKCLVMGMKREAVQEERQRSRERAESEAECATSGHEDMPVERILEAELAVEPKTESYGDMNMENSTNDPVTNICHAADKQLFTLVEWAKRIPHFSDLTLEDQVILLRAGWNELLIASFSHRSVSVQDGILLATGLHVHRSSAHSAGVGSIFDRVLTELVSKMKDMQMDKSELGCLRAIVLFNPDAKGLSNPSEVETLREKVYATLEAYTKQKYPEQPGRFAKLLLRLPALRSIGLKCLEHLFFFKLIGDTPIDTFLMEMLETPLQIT
Procedure: as §1

[3] = molecular target: T3, RXRα Homodimer (Homo sapiens, UniProt P19793); assay: RXRα homodimer activation (transactivation) assay; assay type: cell-based
T3 construct: expressed in transfected cells; host or cells: mammalian cells (BHK21, CV1, etc)
T3 sequence (P19793 1-462): T1 sequence (P19793 1-462)
Description: (§2) Nuclear hormone receptor (NHR) ligand dependent transcriptional transactivation assay.
This secondary in vitro functional assay to characterize hits from the primary ligand binding screens is a GAL4-LBD transactivation assay. The Gal4-LBD protein consists of an in frame fusion of the transcription factor galactose 4 DNA binding domain from S.cerevisiae with the ligand binding domain (LBD) of a particular NHR. Briefly, a plasmid construct expressing the recombinant chimeric receptor is co-transfected into mammalian cells (BHK21, CV1, etc) with a luciferase reporter plasmid containing several copies in tandem of the GAL4 binding sites (promoter recognition elements) upstream from the minimal promoter driving the luciferase gene. The transfected cells are treated with compounds for 12-24 hours, lysates are produced and assayed for luciferase activity and normalized to internal standards such as GH, growth hormone or SEAP, secreted alkaline phosphatase. Ligand binding stabilizes the LBD conformation that recruits endogenous co-factors that mediate eventually the increased transcriptional activity of the luciferase reporter gene. By comparing the activation profile of a reference ligand or a natural ligand, the EC50 values for agonistic activity of a particular ligand can be measured. The extent of activation that can be measured is indicative of a partial, respectively full agonistic activity of a ligand. […]

[4] = molecular target: T4, PPARγ/RXRα Heterodimer (Homo sapiens, UniProt P19793); assay: PPARγ/RXRα heterodimer activation (transactivation) assay; assay type: cell-based
T4 construct: co-transfected with plasmids expressing the full length RXR heteropartner receptor; expressed in transfected cells
T4 sequence (P19793 1-462): T1 sequence (P19793 1-462)
T4 sequence (P37231 1-505 partner): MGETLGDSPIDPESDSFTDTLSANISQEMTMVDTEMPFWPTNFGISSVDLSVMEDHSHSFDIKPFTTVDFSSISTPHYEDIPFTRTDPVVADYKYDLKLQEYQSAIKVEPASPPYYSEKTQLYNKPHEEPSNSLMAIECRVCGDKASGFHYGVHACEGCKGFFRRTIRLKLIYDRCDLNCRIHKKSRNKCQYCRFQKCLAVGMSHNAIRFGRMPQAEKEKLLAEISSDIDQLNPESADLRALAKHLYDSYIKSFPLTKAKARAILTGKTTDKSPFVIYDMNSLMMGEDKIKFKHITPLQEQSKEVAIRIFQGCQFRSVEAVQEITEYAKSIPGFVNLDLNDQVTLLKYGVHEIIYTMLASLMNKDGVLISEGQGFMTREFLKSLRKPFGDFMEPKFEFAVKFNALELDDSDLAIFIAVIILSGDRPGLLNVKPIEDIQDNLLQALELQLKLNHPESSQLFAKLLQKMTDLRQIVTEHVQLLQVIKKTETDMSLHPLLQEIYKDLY
Description: as §2
Heterodimer reporter assays are potentially more important selection criteria for synthetic agonistic NHR ligands as they embody a more natural situation. Basically plasmids expressing the recombinant full length NHR are co-transfected with plasmids expressing the full length RXR heteropartner receptor and a reporter plasmid containing several copies of the natural responsive elements for the respective NHR driving the luciferase reporter gene.

[5] = molecular target: T1, RXRα; assay: Retinoid binding assay, RXRα; design: made in house; host or cells: E. coli; conditions: [3H] 9-cis retinoic acid 20 nM; read-out: Binding Affinity IC50 RXR α
Description: (§3) The DEF domains of RAR's and the full length RXR's, expressed in E.coli, are used to measure competitive retinoid binding. […] 9-cis retinoic acid (for RXR's), respectively. […] Separation of bound from free radioactivity is achieved by charcoal/dextran (RAR's) or by desalting columns (RXR's). […] Retinoid Activation Assays

[6] = molecular target: T2, RXRγ; assay: Retinoid binding assay, RXRγ; design: made in house; host or cells: E. coli; conditions: [3H] 9-cis retinoic acid 20 nM; read-out: Binding Affinity IC50 RXR γ
Description: as §3

[7] = system: db/db mice; assay: Investigation with db/db mice (blood glucose and lipids); assay type: in vivo, mouse; conditions: for Glucose Diff. D o − D 12 / HDL-cholesterol Diff. D o − D 12 / Total cholesterol Diff. D o − D 12 / Triglycerides Diff. D o − D 12: change day 0 to day 12; for Glucose D o / HDL-cholesterol D o / Total cholesterol D o / Triglycerides D o: day 0; for HDL-cholesterol D 12 / Total cholesterol D 12 / Triglycerides D 12 / Glucose D 12: day 12; for Glucose D-4 / HDL-cholesterol D-4 / Total cholesterol D-4 / Triglycerides D-4: day −4
Procedure: The following compounds are investigated and compared to placebo (vehicle control).
The mentioned 3 compounds are tested in db/db mice during a time when diabetes is in a rapid developing stage. […] Each dosage group and the vehicle group comprise 7 mice. The suspensions used are prepared with peroxide free arachis oil as vehicle. Blood samples are collected by retro-orbital bleeding at days −4, 0 and 12. The blood levels of glucose, triglycerides, total cholesterol, and HDL-cholesterol are determined.
For evaluation of efficacy, the difference between the values of glucose, triglycerides, total cholesterol and HDL-cholesterol changing from day 0 to day 12 is determined and expressed in %. […] Overall evaluation consists in determining the efficacy of the compounds by calculating the whole extent of the effect expressed in %. […] This value is considered as a valuable indicator for the efficacy of the investigated compounds administered in a tolerated dose.

[8] = 30 mg/kg/day group versus vehicle group

EC50 [1]: ≥ 10000 nM
EC50 [2]: ≥ 10000 nM
EC50 [3]: > 10000 nM
EC50 [4]: > 10000 nM
IC50 [5]: 52 nM
IC50 [6]: 71 nM
SMILES: CCCOc1c([C@@H]2C[C@@H]2/C=C/C(C)=C/C(=O)O)cc(C(C)(C)C)cc1C(C)(C)C (racemic) [Compound 20, (2E,4E)-5-[2-(3,5-Di-tert-butyl-2-propoxy-phenyl)-cyclopropyl]-3-methyl-penta-2,4-dienoic acid]

SMILES: C=C(c1ccc(C(=O)O)cc1)c1cc2c(cc1C)C(C)(C)CCC2(C)C [Compound 2, 4-[1-(5,6,7,8-tetrahydro-3,5,5,8,8-pentamethyl-2-naphthalenyl)ethenyl]benzoic acid, reference compound]
Glucose Diff. D o − D 12 ([7]; 0.3 mg/kg/day i.p.): +54.0%
HDL-cholesterol Diff. D o − D 12 ([7]; 0.3 mg/kg/day i.p.): −11.8%
Total cholesterol Diff. D o − D 12 ([7]; 0.3 mg/kg/day i.p.): −12.3%
Triglycerides Diff. D o − D 12 ([7]; 0.3 mg/kg/day i.p.): −4.0%
Glucose D o ([7]; 0.3 mg/kg/day i.p.): 189 mg/dL
HDL-cholesterol D o ([7]; 0.3 mg/kg/day i.p.): 2.71 mmol/L
Total cholesterol D o ([7]; 0.3 mg/kg/day i.p.): 3.99 mmol/L
Triglycerides D o ([7]; 0.3 mg/kg/day i.p.): 1.98 mmol/L
HDL-cholesterol D 12 ([7]; 0.3 mg/kg/day i.p.): 2.39 mmol/L
Total cholesterol D 12 ([7]; 0.3 mg/kg/day i.p.): 3.50 mmol/L
Triglycerides D 12 ([7]; 0.3 mg/kg/day i.p.): 1.90 mmol/L
Glucose D-4 ([7]; 0.3 mg/kg/day i.p.): 144 mg/dL
HDL-cholesterol D-4 ([7]; 0.3 mg/kg/day i.p.): 2.48 mmol/L
Total cholesterol D-4 ([7]; 0.3 mg/kg/day i.p.): 3.96 mmol/L
Triglycerides D-4 ([7]; 0.3 mg/kg/day i.p.): 1.65 mmol/L
Glucose levels (in words) ([7]; 3 mg/kg/day): no significant change
HDL-cholesterol levels (in words) ([7]; 3 mg/kg/day): not influenced
Triglyceride levels (in words) ([7]; 3 mg/kg/day): hardly influenced
Glucose Diff. D o − D 12 ([7]; 3.0 mg/kg/day i.p.): +30.4%
HDL-cholesterol Diff. D o − D 12 ([7]; 3.0 mg/kg/day i.p.): −8.3%
Total cholesterol Diff. D o − D 12 ([7]; 3.0 mg/kg/day i.p.): −25.4%
Triglycerides Diff. D o − D 12 ([7]; 3.0 mg/kg/day i.p.): −24.8%
Glucose D o ([7]; 3.0 mg/kg/day i.p.): 175 mg/dL
HDL-cholesterol D o ([7]; 3.0 mg/kg/day i.p.): 2.77 mmol/L
Total cholesterol D o ([7]; 3.0 mg/kg/day i.p.): 4.65 mmol/L
Triglycerides D o ([7]; 3.0 mg/kg/day i.p.): 2.01 mmol/L
Glucose D 12 ([7]; 3.0 mg/kg/day i.p.): 229 mg/dL
HDL-cholesterol D 12 ([7]; 3.0 mg/kg/day i.p.): 2.54 mmol/L
Total cholesterol D 12 ([7]; 3.0 mg/kg/day i.p.): 3.47 mmol/L
Triglycerides D 12 ([7]; 3.0 mg/kg/day i.p.): 1.51 mmol/L
Glucose D-4 ([7]; 3.0 mg/kg/day i.p.): 169 mg/dL
HDL-cholesterol D-4 ([7]; 3.0 mg/kg/day i.p.): 2.66 mmol/L
Total cholesterol D-4 ([7]; 3.0 mg/kg/day i.p.): 4.48 mmol/L
Triglycerides D-4 ([7]; 3.0 mg/kg/day i.p.): 1.97 mmol/L
Glucose levels (in words) ([7]; 30 mg/kg/day): only hardly influenced
HDL-cholesterol levels (in words) ([7]; 30 mg/kg/day): decreased
Total cholesterol levels (in words) ([7]; 30 mg/kg/day): slightly lower
Triglyceride levels (in words) ([7]; 30 mg/kg/day): even raises triglyceride levels
Overall extent of the effect on blood levels of Glucose [7, 8]: +5.6%
Overall extent of the effect on blood levels of HDL-cholesterol [7, 8]: −17.8%
Overall extent of the effect on blood levels of Total cholesterol [7, 8]: −13.0%
Overall extent of the effect on blood levels of Triglycerides [7, 8]: +18.3%
Glucose Diff. D o − D 12 ([7]; 30 mg/kg/day i.p.): +54.8%
HDL-cholesterol Diff. D o − D 12 ([7]; 30 mg/kg/day i.p.): −21.6%
Total cholesterol Diff. D o − D 12 ([7]; 30 mg/kg/day i.p.): −21.8%
Triglycerides Diff. D o − D 12 ([7]; 30 mg/kg/day i.p.): +40.4%
Glucose D o ([7]; 30 mg/kg/day i.p.): 155 mg/dL
HDL-cholesterol D o ([7]; 30 mg/kg/day i.p.): 3.10 mmol/L
Total cholesterol D o ([7]; 30 mg/kg/day i.p.): 4.31 mmol/L
Triglycerides D o ([7]; 30 mg/kg/day i.p.): 1.61 mmol/L
Glucose D 12 ([7]; 30 mg/kg/day i.p.): 240 mg/dL
HDL-cholesterol D 12 ([7]; 30 mg/kg/day i.p.): 2.43 mmol/L
Total cholesterol D 12 ([7]; 30 mg/kg/day i.p.): 3.37 mmol/L
Triglycerides D 12 ([7]; 30 mg/kg/day i.p.): 2.26 mmol/L
Glucose D-4 ([7]; 30 mg/kg/day i.p.): 128 mg/dL
HDL-cholesterol D-4 ([7]; 30 mg/kg/day i.p.): 2.74 mmol/L
Total cholesterol D-4 ([7]; 30 mg/kg/day i.p.): 4.24 mmol/L
Triglycerides D-4 ([7]; 30 mg/kg/day i.p.): 1.75 mmol/L

EC50 [1]: ≥ 10000 nM
EC50 [3]: > 10000 nM
EC50 [4]: > 10000 nM
IC50 [5]: 9 nM
IC50 [6]: 19 nM
SMILES: CCCCCCCOc1c(\C(C)=C/C=C/C(C)=C/C(=O)O)cc(C(C)C)cc1C(C)C [Compound 19, (2E,4E,6Z)-7-(2-Heptyloxy-3,5-diisopropyl-phenyl)-3-methyl-octa-2,4,6-trienoic acid]
